The source of these data is patent publication US7927794B2, “Methods for identifying a biosynthetic pathway gene product” (priority 2003, dated 2011).

In data set [1] the test system is E. coli strain DYM1. Put plainly: Complementation of isoprenoid-deficient ispC mutant E. coli strain DYM1 on supplemented plates. It counts as cell-based, Escherichia coli. The source says: (§1) Campos (2001) Biochem. J. 353:59-67.
To increase the intracellular concentration of FPP substrate supplied to the amorphadiene synthase, the genes encoding the mevalonate-dependent isoprenoid pathway from S. cerevisiae were assembled into operons and expressed in E. coli. To simplify the task of engineering an eight-gene biosynthetic pathway, we divided the genes into two operons, referred to as the “top” and “bottom”. The top operon, MevT, transforms the ubiquitous precursor acetyl-CoA to (R)-mevalonate in three enzymatic steps (FIG. 13). The bottom operon converts the (R)-mevalonate to IPP, DMAPP and/or FPP depending on the construct (FIG. 13). To test the functionality of the heterologous pathway, an E. coli strain deficient in isoprenoid synthesis (strain DYM1) was transformed with plasmids expressing the three different bottom operon constructs pMevB, pMBI and pMBIS (FIG. 13). Strain DYM1 has a deletion in the ispC gene, which encodes 1-deoxy-D-xylulose-5-phosphate reductoisomerase (Kuzuyama et al. (1999) supra) and therefore, cannot synthesize 2-C-methyl-D-erythritol 4-phosphate, an intermediate in the endogenous isoprenoid biosynthetic pathway (FIG. 3). As expected, all strains grew in the presence of 2-C-methyl-D-erythritol (ME), but only the strains harboring pMBI or pMBIS and not pMevB grew on plates supplemented with 1 mM mevalonate in the absence of ME. […]

Data set [2] relates to engineered E. coli. Put plainly: Growth and metabolite analysis of E. coli expressing S. cerevisiae HMG-CoA synthase (pHMGS). Format: cell-based, Escherichia coli. As to conditions: accumulation on expression of HMG-CoA synthase from pHMGS. From the text:
As a specific example, the accumulation of hydroxymethylglutaryl-CoA (HMG-CoA) is toxic to engineered E. coli.
FIG. 10. Cultures of E. coli expressing either no heterologous genes (Control), the S. cerevisiae HMG-CoA synthase alone (pHMGS & Empty Vector), or both the S. cerevisiae HMG-CoA synthase and HMG-CoA reductase (pHMGS & pHMGR) on separate expression vectors.
FIG. 11. Metabolite analysis of cultures of E. coli expressing either no heterologous genes (Control), the S. cerevisiae HMG-CoA synthase alone (pHMGS and Empty Vector), or both the S. cerevisiae HMG-CoA synthase and HMG-CoA reductase (pHMGS and pHMGR) on separate expression vectors. E. coli expressing HMG-CoA synthase alone accumulated HMG-CoA.

The subject of data set [3] is E. coli DH10B. The data set is described as follows: Growth (optical density) of E. coli harboring mevalonate pathway operon plasmids in media supplemented with exogenous mevalonate. Also on record: growth of strains lacking the ADS gene: dose or concentration left out as unconfirmed. As to the method:
For the growth studies, the optical density (OD) of cultures expressing the various recombinant pathways was measured with a microtiter plate reader (SpectraMax, Molecular Devices) from 200 μl cultures of LB broth in 96-well plates incubated at 37° C. with continuous shaking. […] The DYM1 strain was propagated on LB medium containing 0.5 mM methylerithrytol (ME) and transformed DYM1 cells were first allowed to recover on plates supplemented with ME before streaking them on test media.
To investigate the cause of this inhibition, measured the growth of E. coli DH10B from strains harboring either the pMKPMK, pMevB, pMBI or pMBIS plasmid in media supplemented with increasing concentrations of exogenous mevalonate was measured. […] To compare the intracellular prenyl pyrophosphate pools in the same strains, resting cells harboring the different mevalonate operon constructs were fed radiolabeled mevalonate and the labeled metabolites were tracked. […] Simultaneous expression of the amorphadiene synthase consumed the excess FPP pool accumulated in the MBIS host, as shown by a decrease in intracellular FPP.
However, in the absence of the IPP isomerase, FPP synthase and terpene synthase to channel the pathway intermediates to the terpene olefin, toxic levels of intracellular pyrophosphates, especially IPP, may accumulate.

Data set [4] has as its system E. coli. The data set is described as follows: Growth of E. coli overproducing IPP and DMAPP (MK, PMK, MPD, IPP isomerase from pBBR1MCS-2) with various concentrations of mevalonate. Particulars: all concentrations of mevalonate studied. It counts as cell-based, Escherichia coli.
Text: as §1
A genomic library from the isoprene-producing bacteria Bacillus subtilis 6051 was expressed from the pTrc99A plasmid in an E. coli strain engineered (genetically modified) to produce elevated levels of IPP and DMAPP. The engineered screening strain expressed nucleic acids encoding mevalonate kinase, phosphomevalonate kinase, mevalonate diphosphate decarboxylase, and IPP/DMAPP isomerase from the pBBR1MCS plasmid, as described in Example 1. Mevalonate was present in the growth medium at a concentration of 10 mM. After several rounds of growth, only plasmids containing genomic fragments with either yhfR or nudF were found in the genomic library.
FIG. 7. […] Triplicate cultures of E. coli expressing the genes encoding for mevalonate kinase, phosphomevalonate kinase, mevalonate diphosphate decarboxylase, and IPP isomerase from the pBBR1MCS-2 plasmid were grown in the presence of various concentrations of mevalonate present in the culture medium. The cells also harbor the pTRC99A expression vector.
FIG. 8. […] Triplicate cultures were set up, which were identical to those depicted in FIG. 7, except that pTRC99A was replaced by pYhfR. The pYhfR plasmid is a pTrc99A backbone that contains the gene yhfR. The yhfR gene was isolated from a plasmid library containing genomic DNA from Bacillus subtilis 6051.
FIG. 9. […]

For `C[C@](O)(CO)[C@H](O)CO` [2-C-methyl-D-erythritol], in data set [1] (in the presence of 2-C-methyl-D-erythritol (ME)), the “growth of DYM1 strains harboring pMevB, pMBI or pMBIS” value is reported as “grew”.

As for `CC(C)(COP(=O)(O)OP(=O)(O)OC[C@H]1O[C@@H](n2cnc3c(N)ncnc32)[C@H](O)[C@@H]1OP(=O)(O)O)[C@@H](O)C(=O)NCCC(=O)NCCSC(=O)C[C@@](C)(O)CC(=O)O` [HMG-CoA, hydroxymethylglutaryl-CoA], the “effect of intracellular accumulation on engineered E. coli” value in data set [2] is “toxic”.

Take `C=C(C)CCO[P@@](=O)(O)OP(=O)(O)O` [IPP, isopentenyl diphosphate]: the “effect of intracellular accumulation on cell growth” value in data set [3] (accumulation in cells with high flux through the mevalonate pathway (pMevB)) was “toxic and inhibits normal cell growth”.

On to `CC(O)(CCO)CC(=O)O` (stereo not shown) [mevalonate], for which, in data set [3] (5 mM mevalonate in the media), the “growth of cells harboring pMKPMK, pMBI or pMBIS” value is “did not affect the growth” and the “growth of cells harboring pMevB” value is given as “inhibited the growth”. For the same compound, the “growth of cells expressing MBIS” value in data set [3] (10 mM mevalonate) was “growth inhibition”. The “growth of cells co-expressing the MBIS operon and the amorphadiene synthase gene” value in data set [3] (all mevalonate concentrations, IPTG-inducible promoters) was “normal growth rates”. Also, the “growth of strains lacking the ADS gene” value in data set [3] (approximately 2 hours after addition of mevalonate and IPTG) is “Growth inhibition”. Besides, the “growth of control cultures” value in data set [3] (greater than 10 mM mevalonate, MBIS cultures where amorphadiene synthase was not expressed) is reported as “Severe growth inhibition”. In addition, in data set [3] (media supplemented with 1 mM mevalonate), the “growth on expression of the operons” value is recorded as “only a slight decrease in growth”. Further, the “growth of cells harboring pYhfR (yhfR)” value in data set [4] (FIG. 8) was “No growth inhibition”. The “growth of cells harboring pC9b (nudF)” value in data set [4] (FIG. 9) is reported as “No growth inhibition”. The “growth of DYM1 strains harboring pMBI or pMBIS” value in data set [1] (plates supplemented with 1 mM mevalonate in the absence of ME) is “grew”.
